Assay results taken from paper PMC6218659, “Structures of DPAGT1 Explain Glycosylation Disease Mechanisms and Advance TB Antibiotic Design” (Cell, 2018).
Where a chain is given by its changes, count along the chain named. Where a name gives a salt, the structure may show the parent alone.

Experiments:
[1] = target: T1, DPAGT1 (Homo sapiens, UniProt Q9H3H5); assay: Radiolabeled substrate enzyme activity assay; type: biochemical, H. sapiens; details: purified DPAGT1 enzyme, Figure 6F
T1 construct: H. sapiens DPAGT1 (1-408, N-terminal 6 x HIS tag, TEV cleavage site); 6xHis purification tag with TEV site (N, cleaved yes); made in house; host or cells: Spodoptera frugiperda Sf9 insect cells (baculovirus)
T1 sequence (Q9H3H5 1-408): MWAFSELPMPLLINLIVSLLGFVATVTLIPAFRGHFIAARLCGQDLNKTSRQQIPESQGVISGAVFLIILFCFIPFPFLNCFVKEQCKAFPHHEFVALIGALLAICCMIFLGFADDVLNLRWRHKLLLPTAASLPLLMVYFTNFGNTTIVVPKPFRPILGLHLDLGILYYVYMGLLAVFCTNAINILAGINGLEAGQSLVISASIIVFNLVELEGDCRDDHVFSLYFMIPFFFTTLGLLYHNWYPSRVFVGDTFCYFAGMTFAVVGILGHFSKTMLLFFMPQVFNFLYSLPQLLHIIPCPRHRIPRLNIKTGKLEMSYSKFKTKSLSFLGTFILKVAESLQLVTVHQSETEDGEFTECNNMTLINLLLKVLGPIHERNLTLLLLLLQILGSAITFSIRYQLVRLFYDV
Description: 2 μl of 2 μM DPAGT1 WT or mutant proteins in GFB buffer supplemented with 5mM extra MgCl2, 1% OGNG/CHS/cardiolipin and dolichyl monophosphate was combined with 2 μl of UDP-N-acetyl [1-14C] […] The reaction was terminated by the addition of 6 μl of 100% methanol and immediately transferred onto ice. 1 μl of sample was spotted onto a silica coated TLC plate in triplicate and run with a mobile phase consisting of chloroform, methanol, and water at a 65:25:4 ratio respectively. After the run, the TLC plate was dried thoroughly, wrapped in cling film, incubated with a phosphor imaging substrate for 4 days, then phosphor imaged using a Biorad. The pixel density of the spots corresponding to the hydrophobic product was divided by combined pixel density of the product and the substrate and multiplied by the known concentration of substrate added to ascertain the amount of product formed.

[2] = target: T2, DPAGT1 Arg301His (Homo sapiens, UniProt Q9H3H5, R301H); assay: Thermostability assay (label free differential scanning fluorimetry); type: binding, H. sapiens; details: 50 μM compound
T2 construct: combined with the LIC-adapted primers to amplify the complete DPAGT1 gene, including the desired mutations; 6xHis purification tag with TEV site (N, cleaved yes); made in house; host or cells: Spodoptera frugiperda Sf9 insect cells (baculovirus)
T2 sequence (Q9H3H5 1-408 R301H): T1 sequence (Q9H3H5 1-408) with R301H
Description: (§1) Samples with a volume of 40 μl were prepared containing 0.5 mg/ml protein and 50 μM compound or 5% DMSO in GFB. A glass capillary was dipped into each sample, with the capillary held horizontally to ensure that the capillary was full of the sample. The capillaries were placed on the capillary holder on the Nanotemper Prometheus. Technical triplicates of each sample were prepared, and each experiment was conducted with biological triplicates of each protein. PR.ThermControl software was used to run the experiment and analyse the data. A melting curve from 20 °C – 95 °C at 5 °C/min was performed. The minimum of the first derivative of the 330/350nm ratio was used to determine the Tm1/2.

[3] = target: T3, DPAGT1 Arg301Cys (Homo sapiens, UniProt Q9H3H5, R301C); assay: as above; type: binding, H. sapiens; details: 50 μM compound
T3 construct: combined with the LIC-adapted primers to amplify the complete DPAGT1 gene, including the desired mutations; 6xHis purification tag with TEV site (N, cleaved yes); made in house; host or cells: Spodoptera frugiperda Sf9 insect cells (baculovirus)
T3 sequence (Q9H3H5 1-408 R301C): T1 sequence (Q9H3H5 1-408) with R301C
Description: as §1

[4] = target: T4, DPAGT1 Tyr170Cys (Homo sapiens, UniProt Q9H3H5, Y170C); assay: as above; type: binding, H. sapiens; details: 50 μM compound
T4 construct: combined with the LIC-adapted primers to amplify the complete DPAGT1 gene, including the desired mutations; 6xHis purification tag with TEV site (N, cleaved yes); made in house; host or cells: Spodoptera frugiperda Sf9 insect cells (baculovirus)
T4 sequence (Q9H3H5 1-408 Y170C): T1 sequence (Q9H3H5 1-408) with Y170C
Description: as §1

[5] = target: T5, DPAGT1 WT (Homo sapiens, UniProt Q9H3H5); assay: as above; type: binding, H. sapiens; details: 50 μM compound
T5 construct: H. sapiens DPAGT1 (1-408, N-terminal 6 x HIS tag, TEV cleavage site); 6xHis purification tag with TEV site (N, cleaved yes); made in house; host or cells: Spodoptera frugiperda Sf9 insect cells (baculovirus)
T5 sequence (Q9H3H5 1-408): T1 sequence (Q9H3H5 1-408)
Description: as §1

Row | SMILES | effect on DPAGT1 catalytic activity [1] | Thermostability (Tm1/2) with added compound [2] | Thermostability (Tm1/2) with added compound [3] | Thermostability (Tm1/2) with added compound [4] | Thermostability (Tm1/2) with added compound [5]
1 | CCCCCCCC(=O)N[C@H]1[C@H](O[C@H]2O[C@H](CO)[C@@H](O)[C@H](O)[C@H]2NC(=O)CCCCCCC)O[C@H](C[C@@H](O)[C@H]2O[C@@H](n3ccc(=O)[nH]c3=O)[C@H](O)[C@@H]2O)[C@H](O)[C@@H]1O [TUN-8,8, Di-N-octanoyl-tunicamycin] | negligible effect | – | – | – | –
2 | N[C@H]1[C@H](O[C@H]2O[C@H](CO)[C@@H](O)[C@H](O)[C@H]2N)O[C@H](C[C@@H](O)[C@H]2O[C@@H](n3ccc(=O)[nH]c3=O)[C@H](O)[C@@H]2O)[C@H](O)[C@@H]1O [TUN, α-D-glucosamine-(1”-11')-tunicamyl uracil dihydrochloride] | – | 81.2±0.5 °C | 80.9±0.5 °C | 83.1±0.8 °C | 83.0±0.4 °C
